Measured values as given in article PMC4891694, “Insights into the role of sulfated glycans in cancer cell adhesion and migration through use of branched peptide probe” (Scientific Reports, 2016).

What was measured:
breast cancer in mice = conditions: orthotopic breast cancer, versus unconjugated paclitaxel; cited from earlier work
[1] = system: NT4 binding to membrane receptors on PANC-1 cells; test: Flow cytometry, inhibition of NT4 binding to PANC-1 cells by GAGs; type: cell-based, human; conditions: 1 μM biotinylated NT4, 100 μg/ml GAGs, PBS with 5 mM EDTA and 0.5% BSA, Streptavidin-FITC
[2] = system: NT4 binding to endocytic receptors; set-up: method as in PMID 23713525; conditions: cited from earlier work
[3] = system: NT4 binding to PgsA-745 cells; test: Flow cytometry, inhibition of NT4 binding to PgsA-745 cells by heparin; type: cell-based, Chinese hamster; conditions: 1 μM biotinylated NT4, 100 μg/ml heparin
Method: PANC-1 human pancreas adenocarcinoma, CHO-K1 Chinese hamster ovary cell and PgsA-745 Chinese hamster ovary cell mutant deficient in xylosyltransferase (UDP-D-xylose: serine-1,3-D-xylosyltransferase) were grown in DMEM Medium (for PANC-1 and CHO-K1) and F12 K Medium supplemented with 10% fetal bovine serum, 200 μg/ml glutamine, 100 μg/ml streptomycin and 60 μg/ml penicillin. Cell lines were purchased from ATCC (The Global Bioresource Center).
All experiments were performed using 1 × 10^5 PANC-1, CHO-K1 or PgsA-745 cells in 96-well U-bottom plates. […] Cells were finally incubated with 1 μg/ml Streptavidin-FITC. All dilutions were performed in PBS, containing 5 mM EDTA and 0.5% BSA.
10000 events were analyzed in a BD FACS Calibur (Becton Dickinson, NJ USA). Results were analyzed by FCS Express 4 Plus software.

[4] = system: cancer cell lines and human cancer surgical samples; set-up: method as in 2 sources, one per row (each row's own in cited_ref): ref 1-6 = [1]; PMID 17766836; doi:10.1158/1535-7163.MCT-07-0164; Falciani C. et al. Synthesis and biological activity of stable branched neurotensin peptides for tumor targeting . Mol. Cancer Ther. 6 , 2441 − 2448 ( 2007 ). 17766836 10.1158/1535-7163.MCT-07-0164 || [2]; PMID 20222099; doi:10.1002/cmdc.200900527; Falciani C. et al. Design and in vitro evaluation of branched peptide conjugates: turning nonspecific cytotoxic drugs into tumor-selective agents . ChemMedChem. 5 , 567 − 574 ( 2010 ). 20222099 10.100 || [3]; PMID 20578987; doi:10.2174/156800910793605875; Falciani C. et al. Modular branched neurotensin peptides for tumor target tracing and receptor-mediated therapy: a proof-of-concept . Curr. Cancer Drug Targets. 10 , 695 − 704 ( 2010 ). 20578987 10.21 || [4]; PMID 21370475; doi:10.1002/cmdc.201000463; Falciani C. et al. Target-selective drug delivery through liposomes labeled with oligobranched neurotensin peptides . ChemMedChem. 6 , 678 − 685 ( 2011 ). 21370475 10.1002/cmdc.201000463 || [5]; PMID 25984525; doi:10.1155/2015/173507; Brunetti J. et al. Neurotensin branched Peptide as a tumor-targeting agent for human bladder cancer . Biomed Res Int. 2015 , 173507 , doi: 10.1155/2015/173507 ( 2015 ). 25984525 PMC4423026 ||| ref 7 = [7]; PMID 23713525; doi:10.1021/jm400329p; Falciani C. et al. Cancer selectivity of tetrabranched neurotensin peptides is generated by simultaneous binding to sulfated glycosaminoglycans and protein receptors . J Med Chem. 56 , 5009 – 18 ( 201); conditions: compared with NT4; cited from earlier work

Compound: CC(=O)O[C@H]1C(=O)[C@@]2(C)[C@H]([C@H](OC(=O)c3ccccc3)[C@]3(O)C[C@H](OC(=O)[C@H](O)[C@@H](NC(=O)c4ccccc4)c4ccccc4)C(C)=C1C3(C)C)[C@]1(OC(C)=O)CO[C@@H]1C[C@@H]2O [unconjugated paclitaxel, paclitaxel]
- tumor regression (breast cancer in mice): not achieved with unconjugated paclitaxel

Compound: heparin
- inhibition of NT4 binding (in words) [1]: complete inhibition
- inhibition of NT4 binding to endocytic receptors [2]: completely inhibited by heparin
- inhibition of NT4 binding to PgsA-745 cells [3]: still completely inhibited by heparin

Compound: hyaluronic acid
- inhibition of NT4 binding (in words) [1]: neither binding to NT4 or inhibition of NT4 binding to cancer cell membranes was detected

Compound: native neurotensin: monomeric native neurotensin
- high cancer selectivity [4]: not shared by monomeric native neurotensin
